Consider 113 compounds from PubChem BioAssay AID2202554 (NIEHS Division of Translational Toxicology (DTT)).

Results filed as inconclusive are left out. Calls of active or inactive are those of the source. No rule for the calls is given here.

For this data set, the system named is S. typhimurium/E. coli reverse mutation, colony counts. Nature of the data set: Bacterial reverse mutation test (aka Ames test) summary data. Summed up: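 S. typhimurium his⁻ strains (TA97–TA1538) and E. coli WP2 uvrA pKM101 trp⁻, dosed over a range with or without rat, hamster or mouse liver S9. Preincubated 20 min at 37° C (or plate incorporation), plated in agar, incubated usually two days. Revertant colonies counted against negative controls.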
In general terms: The Ames test detects mutagens through reverse mutation in bacteria.
Regarding `O=[N+]([O-])c1ccc(Nc2ccccc2O)c([N+](=O)[O-])c1`, the outcome was “active; positive”.
Turning to `CCCCCON=O`, the outcome is “active; positive”.
In the case of `Cc1ccc2oc(=O)ccc2c1`, the outcome is “inactive; negative”.
Regarding `CCC1NC(=O)c2cc(S(N)(=O)=O)c(Cl)cc2N1` (stereo not drawn), the outcome was “inactive; negative”.
The result for `CC(=O)CC(N)=O` reads “active; positive”; that for `CCC(CO)[N+](=O)[O-]` (stereo not drawn), “inactive; negative”.
With `[CH3][Sn]([CH3])([Cl])[Cl]`, the outcome was “inactive; negative”.
Take `Brc1cc(Br)c(Oc2cc(Br)c(Br)cc2Br)cc1Br`: the outcome is “inactive; negative”.
On to `C=C(C)C(=O)OCC(Br)CBr` (stereo not drawn), for which the outcome was “active; positive”.
For the compound `C=C(C)C(=O)OCC`, the outcome is “inactive; negative”.
Consider `C=CC(=C)C`, for which the outcome was “inactive; negative”.
On to `c1ccc2c(c1)oc1ccccc12`, for which the outcome was “inactive; negative”.
Regarding `O=CCCCC=O`, the outcome is “active; positive”.
Take `c1ccncc1`: the outcome was “inactive; negative”.
Take `Clc1nc(Cl)nc(Nc2ccccc2Cl)n1`: the outcome was “inactive; negative”.
Consider `C=CCc1cc(OC)c2c(c1)OCO2`, for which the outcome is “inactive; negative”.
Consider `O=C(O)/C=C/C(=O)O`, for which the outcome was “inactive; negative”.
Take `Nc1ccc([N+](=O)[O-])cc1N`: the outcome was “active; positive”.
The result for `ClC(Cl)Br` reads “inactive; negative”.
With `CC(=O)CC(C)C`, the outcome is “inactive; negative”.
Take `COc1ccc(Cc2nccc3cc(OC)c(OC)cc23)cc1OC`: the outcome is “inactive; negative”.
For the compound `COC(=O)C(c1ccccc1)C1CCCCN1` (stereo not drawn), the outcome was “inactive; negative”.
In the case of `CC(Cl)CN(C)C` (stereo not drawn), the outcome is “active; positive”.
For the compound `Cc1ccc(C(C)(C)C)cc1`, the outcome is “inactive; negative”.
For the compound `CCCCCCCC(=O)OCC(COC(=O)CCCCCCC)OC(=O)CCCCCCC`, the outcome is “active; positive”.
For `NCCCOCCOCCOCCCN`, the outcome is “inactive; negative”.
Take `CC=CC=CC=O`: the outcome is “active; positive”.
For `CC(=O)OCc1ccco1`, the outcome is “active; positive”.
Consider `CNc1ccccc1`, for which the outcome is “inactive; negative”.
As to `CCN(CC)C(=S)S`, the outcome is “inactive; negative”.
Regarding `O=C(O)c1ccc2c(c1)C(=O)OC2=O`, the outcome is “inactive; negative”.
Consider `O=S(=O)(c1ccc(Cl)cc1)c1ccc(Cl)cc1`, for which the outcome is “inactive; negative”.
Regarding `ClCCl`, the outcome is “active; positive”.
For the compound `COC(=O)C1=C(C)NC(C)=C(C(=O)OC)C1c1ccccc1[N+](=O)[O-]`, the outcome is “inactive; negative”.
Consider `CCN(CC)CCNc1ccc(CO)c2sc3ccccc3c(=O)c12`, for which the outcome was “active; positive”.
The entry for `Nc1cccc(O)c1` is “active; positive”; for `C=C(C)C(=O)OCC(C)C` it is “inactive; negative”; for `NC1(C(=O)O)CCCC1` it is “inactive; negative”.
With `ClC(Cl)(Cl)c1ccccc1`, the outcome was “active; positive”.
`Nc1ncnc2c1ncn2[C@H]1CC[C@@H](CO)O1`: the outcome is “active; positive”.
As for `NCCCCCCCCCCC(=O)O`, the outcome was “inactive; negative”.
For `O=[N+]([O-])C(Br)(Br)Br`, the outcome is “active; weakly positive”.
As to `Cc1ccc(N)cc1N`, the outcome was “active; positive”.
The entry for `CC(C)CCC[C@@H](C)[C@H]1CC[C@H]2[C@@H]3CC=C4C[C@@H](OC(=O)Cc5ccc(N(CCCl)CCCl)cc5)CC[C@]4(C)[C@H]3CC[C@]12C` is “inactive; negative”; for `OCC1CCC(CO)CC1` (stereo not drawn) it is “inactive; negative”; for `CC(C)(C)OO` it is “active; positive”.
`CN1C[C@H](C(=O)N[C@]2(C)O[C@@]3(O)[C@@H]4CCCN4C(=O)[C@H](Cc4ccccc4)N3C2=O)C=C2c3cccc4[nH]cc(c34)C[C@H]21`: the outcome is “inactive; negative”.
`O=C(OOC(=O)c1ccccc1)c1ccccc1`: the outcome was “inactive; negative”.
Take `NCCc1ccc(O)c(O)c1`: the outcome was “active; weakly positive”.
As to `COc1cc(-c2ccc(N=Nc3c(S(=O)(=O)O)cc4cc(S(=O)(=O)O)cc(N)c4c3O)c(OC)c2)ccc1N=Nc1c(S(=O)(=O)O)cc2cc(S(=O)(=O)O)cc(N)c2c1O`, the outcome is “inactive; negative”.
As for `S=C=S`, the outcome is “inactive; negative”.
Regarding `CC(O)CCl` (stereo not drawn), the outcome is “active; positive”.
For `CCCCCCCCCCCCCl`, the outcome was “inactive; negative”.
Turning to `N#C/C=C/C#N`, the outcome is “inactive; negative”.
As to `Cc1c(N)cccc1N`, the outcome is “active; positive”.
As for `Brc1ccc(Oc2cc(Br)c(Br)cc2Br)c(Br)c1`, the outcome is “inactive; negative”.
On to `CCc1ccccc1O`, for which the outcome was “inactive; negative”.
`ICCc1ccccc1`: the outcome is “inactive; negative”.
As for `O=C1CSC(=S)N1`, the outcome was “inactive; negative”.
In the case of `NC1CCCCC1`, the outcome is “inactive; negative”.
`Clc1cc(Cl)c(Cl)c(Cl)c1Cl`: the outcome is “inactive; negative”.
On to `NC(=O)c1cnccn1`, for which the outcome is “inactive; negative”.
With `Cc1cc(O)c2c(c1)C(=O)c1cccc(O)c1C2=O`, the outcome was “active; weakly positive”.
In the case of `CCCCOc1ccc(C=Nc2ccc(CC)cc2)cc1`, the outcome was “active; weakly positive”.
Take `CC(CCl)OP(=O)(OC(C)CCl)OC(C)CCl` (stereo not drawn): the outcome was “inactive; negative”.
Turning to `CCn1c2ccccc2c2cc(N)ccc21`, the outcome is “active; positive”.
Take `CCSCCC(N)C(=O)O` (stereo not drawn): the outcome was “inactive; negative”.
In the case of `CCCCC(CC)COC(=O)c1ccccc1C(=O)OCC(CC)CCCC` (stereo not drawn), the outcome is “inactive; negative”.
The entry for `CN=c1ccc2nc3ccc(N)cc3sc-2c1` is “active; positive”.
In the case of `Oc1cccc2cc3cccc(O)c3c(O)c12`, the outcome is “inactive; negative”.
The entry for `C=CCC` is “inactive; negative”; for `Cc1ccc2c(C)cccc2c1` it is “inactive; negative”; for `CN(C)c1ccc(N=NS(=O)(=O)O)cc1` it is “active; positive”.
Consider `c1ccc2occc2c1`, for which the outcome was “inactive; negative”.
Turning to `O=C(O)CN(CC(=O)O)CC(=O)O`, the outcome was “inactive; negative”.
Consider `ClCCOCCCl`, for which the outcome is “active; weakly positive”.
With `CC(=O)Nc1cccc(C)c1`, the outcome is “inactive; negative”.
As to `O=P(OC(CCl)CCl)(OC(CCl)CCl)OC(CCl)CCl`, the outcome is “active; positive”.
For the compound `O=C(O)c1c(Cl)cccc1Cl`, the outcome is “inactive; negative”.
For the compound `CCC(C)(C)C`, the outcome was “inactive; negative”.
On to `NC(=NCCCCCCN=C(N)/N=C(\N)Nc1ccc(Cl)cc1)/N=C(\N)Nc1ccc(Cl)cc1`, for which the outcome is “inactive; negative”.
For the compound `CN(C)CCN(Cc1cccs1)c1ccccn1`, the outcome was “inactive; negative”.
With `CC(C)C(C)(C)C(C)(C)C(C)(C)S`, the outcome is “inactive; negative”.
Regarding `N#CCCC#N`, the outcome was “inactive; negative”.
With `CC(C)(c1ccc(O)cc1)c1ccc(O)cc1`, the outcome is “inactive; negative”.
With `CCCCCCCCCCCCCC(=O)O`, the outcome is “inactive; negative”.
As to `c1ccc2c(c1)ccc1ccccc12`, the outcome is “active; weakly positive”.
`[O-][n+]1ccccc1SSc1cccc[n+]1[O-]`: the outcome was “inactive; negative”.
Take `O=C(O)/C=C\C(=O)O`: the outcome was “inactive; negative”.
Consider `CC(CO)[N+](=O)[O-]` (stereo not drawn), for which the outcome is “inactive; negative”.
With `CCC(C)O` (stereo not drawn), the outcome was “inactive; negative”.
Regarding `NC(=O)c1ccccc1[N+](=O)[O-]`, the outcome is “active; positive”.
In the case of `CC(C)[C@@H]1CC[C@@H](C)C[C@H]1O`, the outcome was “inactive; negative”.
Turning to `S=C1NC=NC2N=CNC12` (stereo not drawn), the outcome is “active; positive”.
On to `OCCN1CC1`, for which the outcome was “active; positive”.
Consider `O=C1C2CC=CCC2C(=O)N1SC(Cl)(Cl)Cl` (stereo not drawn), for which the outcome is “active; positive”.
As to `OC1C2(Cl)C3(Cl)C4(Cl)C(Cl)(Cl)C5(Cl)C3(Cl)C1(Cl)C5(Cl)C24Cl` (stereo not drawn), the outcome was “inactive; negative”.
The entry for `CCC(=O)C=CC1C(C)=CCCC1(C)C` (stereo not drawn) is “inactive; negative”; for `Oc1ccc([C@H]2COc3cc(O)ccc3C2)cc1` it is “inactive; negative”; for `O=C(O)c1ccccc1C(=O)O` it is “inactive; negative”.
Regarding `Clc1ccccc1Cl`, the outcome was “inactive; negative”.
For the compound `C=CCOC(=O)C=C`, the outcome is “inactive; negative”.
The entry for `O=P(Oc1ccccc1)(Oc1ccccc1)Oc1ccccc1` is “inactive; negative”; for `CCCCCCCC/C=C\CCCCCCCC(=O)O` it is “inactive; negative”.
As to `CCCCCCCCC=O`, the outcome is “inactive; negative”.
With `NC(=O)CC(N)=O`, the outcome was “inactive; negative”.
Regarding `O=C1OC(=O)c2ccccc21`, the outcome is “inactive; negative”.
The result for `CC/C=C\C/C=C\C/C=C\CCCCCCCC(=O)O` reads “active; weakly positive”; that for `O=[N+]([O-])c1ccc(NCCO)c(OCCO)c1`, “active; positive”.
As for `N#CCc1ccccc1[N+](=O)[O-]`, the outcome is “active; positive”.
Take `ClC(Cl)(Cl)CC1CO1` (stereo not drawn): the outcome was “active; positive”.
In the case of `BrCCBr`, the outcome is “active; positive”.
On to `O=[N+]([O-])c1ccc(O)c([N+](=O)[O-])c1`, for which the outcome was “inactive; negative”.
